Data on ten compounds can be found in ChEMBL document CHEMBL4610052, “Application of tandem biotransformation for biosynthesis of new pentacyclic triterpenoid derivatives with neuroprotective effect” (Bioorg Med Chem Lett, 2020).

In general, EC50 refers to the concentration giving half of the maximal effect. A high value points to lower potency in that assay.

The assay deals with PC-12. Description: Neuroprotective activity against CoCl2-induced neuronal injury in rat PC12 cells. The class given is functional, cell-based.
In turn, `CC1(C)[C@@H](O)CC[C@]2(C)[C@H]3C(=O)C=C4[C@@H]5C[C@@](C)(C(=O)O[C@@H]6O[C@H](CO)[C@@H](O)[C@H](O)[C@H]6O)CC[C@]5(C)CC[C@@]4(C)[C@]3(C)[C@@H](O)C[C@@H]12` had an EC50 of over 40 µM. The same measure for `CC1(C)[C@@H](O)CC[C@]2(C)[C@H]3CC=C4[C@@H]5C[C@](C)(C(=O)O)[C@@H](O)C[C@]5(C(=O)O)CC[C@@]4(C)[C@]3(C)[C@@H](O)C[C@@H]12`: 0.48 µM.

The compound `CC1(C)[C@@H](O)CC[C@]2(C)[C@H]3C(=O)C=C4[C@@H]5C[C@@](C)(C(=O)O[C@@H]6O[C@H](CO)[C@@H](O)[C@H](O)[C@H]6O)CC[C@]5(C)CC[C@@]4(C)[C@]3(C)CC[C@@H]12` registered a concentration giving a half-maximal response (EC50) of over 40 µM. The same measure for `CC1(C)C[C@H]2C3=CC[C@@H]4[C@@]5(C)CC[C@H](O[C@H]6O[C@@H](CO)[C@H](O)[C@@H](O)[C@@H]6O)C(C)(C)[C@@H]5C[C@H](O)[C@@]4(C)[C@]3(C)CC[C@@]2(C(=O)O)C[C@@H]1O`: over 40 µM. For `CC1(C)[C@@H](O)CC[C@]2(C)[C@H]3C(=O)C=C4[C@@H]5C[C@@](C)(C(=O)O)CC[C@]5(C)CC[C@@]4(C)[C@]3(C)[C@@H](O)C[C@@H]12` the value was 1.76 µM; for `CC1(C)[C@@H](O)CC[C@]2(C)[C@H]3CC=C4[C@@H]5C[C@](C)(CO)[C@@H](O)C[C@]5(C(=O)O)CC[C@@]4(C)[C@]3(C)[C@@H](O)C[C@@H]12`, 7.74 µM; for `CC1(C)C[C@H]2C3=CC[C@@H]4[C@@]5(C)CC[C@H](O)C(C)(C)[C@@H]5C[C@H](O)[C@@]4(C)[C@]3(C)CC[C@@]2(C(=O)O)C[C@@H]1O`, over 40 µM. Compound `CC1(C)[C@@H](O)CC[C@]2(C)[C@H]3C(=O)C=C4[C@@H]5C[C@@](C)(C(=O)O)CC[C@]5(C)CC[C@@]4(C)[C@]3(C)CC[C@@H]12` [ENOXOLONE] displayed an EC50 of 0.89 µM. For `CC1(C)CC[C@]2(C(=O)O)CC[C@]3(C)C(=CC[C@@H]4[C@@]5(C)CC[C@H](O)C(C)(C)[C@@H]5CC[C@]43C)[C@@H]2C1` [OLEANOLIC_ACID], a half-maximal response (EC50) required 8.55 µM. The same measure for `OC[C@H]1O[C@@H](OCCc2ccc(O)cc2)[C@H](O)[C@@H](O)[C@@H]1O` [SALIDROSIDE]: 0.21 µM.
